# Values quoted from earlier work, collected in PMC11920646 (Frontiers in Pharmacology, 2025).
# What was measured:
# [1] = system: IFN-γ release in human whole blood; set-up: method as in Hu et al., 2011; conditions: at concentrations each of 100–1000 nM ref Hu et al., 2011; cited from earlier work
# [2] = system: IL-6 release in A549 cells; set-up: method as in Hu et al., 2011; conditions: dagrocorat study ref Hu et al., 2011; cited from earlier work
# [3] = humans ref Ripa et al., 2018; cited from earlier work
Structure (SMILES),inhibition of IFN-γ release in human whole blood [1],inhibition of IL-6 release in A549 cells [2],t½ [3]
Cc1ncccc1NC(=O)c1ccc2c(c1)CC[C@@H]1C[C@@](O)(C(F)(F)F)CC[C@@]21Cc1ccccc1 [dagrocorat],60–70%,78%,–
CC(C)[C@H](NC(=O)C(C)(F)F)[C@H](Oc1ccc2c(cnn2-c2ccc(=O)n(C)c2)c1)c1ccccc1 [mizacorat],–,–,~5 h
